Results published in US8809344B2, “Compounds, compositions, and methods for control of hepatitis C viral infections” (priority 2008, dated 2014).

Tests used:
[1] = system: genotype 1b (Con1 strain) replicon with NS4B S1949Y mutation; experiment: S1949Y mutant reporter replicon IVT RNA in Huh7.5 cells; type: cell-based; conditions: Hepatitis C virus
Text: (§1) To identify nucleotide changes that confer resistance to 80978, replicon RNA was reverse transcribed and amplified from total RNA extracted from 80978-resistant and control Clone A cells. […] One silent mutation at amino acid 1771 was also observed. Each mutation was introduced independently into a stable genotype 1b (Con1 strain) subgenomic reporter replicon plasmid via site-directed mutagenesis. […] The sequence of the wild type NS4B encoding sequence is provided as SEQ ID NO:1, the sequence of the mutated NS4B nucleotide sequence encoding the F1809V mutation is provided as SEQ ID NO:3, and the sequence of the mutated NS4B nucleotide sequence encoding the F1809L mutation is provided as SEQ ID NO:5. The sequence of the wild type NS4B protein is provided as SEQ ID NO:2, the sequence of the mutated NS4B protein with the F1809V mutation is provided as SEQ ID NO:4, and the sequence of the mutated NS4B nucleotide sequence encoding the F1809L mutation is provided as SEQ ID NO:6. […] A differential response was observed between cells electroporated with different replicon RNAs.

[2] = system: genotype 1b (Con1 strain) replicon with NS4B F1809V mutation; experiment: F1809V mutant reporter replicon IVT RNA in Huh7.5 cells; type: cell-based; conditions: Hepatitis C virus
Text: as §1

[3] = system: chimeric APV112 HCV (genotype 2a with genotype 1b NS4B amino acids 53 to 218); experiment: HCV APV112 viral infectivity assay in Huh7.5 cells, 3′NTR RNA by realtime quantitative PCR; type: cell-based, hepatitis C virus; conditions: for Log change in 3′NTR copies relative to 1.0% DMSO (GAPDH normalized): 48 hours; for chimeric APV112 viral infectivity: sensitive genotype 1b NS4B region
Experimental: Inhibition of HCV infectivity by AP0080978 and its analogs (AP0080977, non-active enantiomer; AP0089652, racemate; and AP0080935, an aromatic, non-optically active analog of AP0080978) was assayed by exposing cells with infectious chimeric HCV virions in the presence of the compounds. This was accomplished by use of an HCV cell culture system essentially as described in Pietschmann, T. et al. (2006) 103(19): 7408-13, Proc. Natl. Acad. Sci. USA; and elsewhere. Two viral constructs were utilized to characterize inhibition of viral infectivity (FIG. 4). Construct APV23 (FL-J6/JFH) is a full-length, chimeric, genotype 2a HCV genome containing the HCV core through the NS2 first transmembrane domain coding region from the J6 HCV isolate linked to the second NS2 transmembrane domain NS3 through NS5B coding region of HCV strain JFH-1, as shown in FIG. 4 (i.e. an HCV chimera with the “C3 Junction” described in Pietschmann, T. et al. (2006) Proc. Natl. Acad. Sci. USA 103(19): 7408-13; see page 7409 and FIG. 2A of Pietschmann, T. et al.). Construct APV112 was generated by replacing nucleotides encoding amino acids 53 to 218 of the NS4B gene of the APV23 sequence with a corresponding sequence from a genotype 1b (Con1 strain).
Huh7.5 cells were plated at a density of 20,000 cells per well in 96-well plates. The cells were exposed to the chimeric HCV virions at a multiplicity of infection of 0.01. Potential inhibitory compounds were added simultaneously with the chimeric virus. Cells were incubated for 48 hours and then the levels of HCV 3′NTR and GAPDH RNA were quantified by realtime quantitative PCR. Data were analyzed by the comparative Ct method with delta-delta Ct determined relative to 1.0% DMSO. Results in FIGS. 5 and 6 are depicted as log change in 3′NTR copies relative to 1.0% DMSO.

[4] = Neutral red dye uptake cytotoxicity assay; type: cell-based; conditions: human, Experiment 3
Experimental: Inhibition of HCV replication by compound AP0080978 (enantiomer 2 from Example 1) was also assayed by exposing cells harboring either HCV genotype 1a, HCV genotype 1b, HCV genotype 2a replicons. […] Final DMSO percentage was 1% in a total volume of 1 ml. After a 72 hour treatment period, total RNA was extracted, quantified via RiboGreen™ assay (Invitrogen-Molecular Probes, Eugene, Oreg., USA), and equivalent amounts of RNA were subjected to quantitative RT-PCR to quantify HCV RNA levels. Activity against genotype 1b was re-confirmed using Clone II cells (U.S. Pat. No. 7,049,428) that contain a stable subgenomic replicon (Con1 strain) with a Arg 1164 Gly adaptive mutation that is distinct from the Ser 1179 Ile adaptive mutation present in Clone VI cells. In this assay, cells were seeded into 96-well plates and treated in quadruplicate with varying concentration of compounds for 72 hours. For each replicate culture, HCV RNA levels were measured by blot hybridization and normalized to β-actin RNA levels. Cytotoxicity was measured using an established neutral red dye uptake assay (Korba and Gerin (1992) Antiviral Res 19:55; Okuse et al (2005) Antiviral Res 65: 23). […] Activity and toxicity against genotype 2a was evaluated in Huh7 cells harboring a stable hRluc-containing subgenomic genotype 2a replicon containing sequence from both J6 and JFH1 strains. […]

O=C(NCc1cccs1)c1nn2c(c1Cl)N[C@H](c1ccco1)C[C@@H]2C(F)(F)F (single isomer, unassigned) [Compound 80978]
EC50 [1]: 410 nM
EC50 [2]: > 22.5 µM
potency in viral infectivity assays relative to HCV replicon assays [3]: significantly more potent
greater log change relative to the log change of the 89652 racemate ([3]; 0.02 μM, APV112): 5.3 fold
Log change in 3′NTR copies relative to 1.0% DMSO (GAPDH normalized) ([3]; 0.02 μM, APV112): −0.79
Log change in 3′NTR copies relative to 1.0% DMSO (GAPDH normalized) ([3]; 0.07 μM, APV112): −1.29
Log change in 3′NTR copies relative to 1.0% DMSO (GAPDH normalized) ([3]; 0.22 μM, APV112): −1.52
Log change in 3′NTR copies relative to 1.0% DMSO (GAPDH normalized) ([3]; 0.67 μM, APV112): −1.67
Log change in 3′NTR copies relative to 1.0% DMSO (GAPDH normalized) ([3]; 2 μM, APV112): −1.49
potency relative to control HCV inhibitors 2′CMeA, VX-950, cyclosporin A and a-CD81 antibody (JS81) ([3]; FIG. 5, APV112): significantly more potent
chimeric APV112 viral infectivity ([3]; FIG. 5, listed as AP 80978): able to inhibit
chimeric APV112 viral infectivity ([3]; FIG. 5, listed as AP0080978): reduced
CC50 at 72 h [4]: > 20 µM
